Data reported in the METLIN SMRT retention time set (Domingo-Almenara et al. 2019).

Experiment: gradient 5% acetonitrile 3 min, to 50% in 2 min, to 85% in 15 min, held 3 min, 100 µL/min
Conditions: column: Zorbax Extend-C18 2.1 x 50 mm; eluents: water / acetonitrile, 0.1% formic acid
Summary of the method: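 A Zorbax Extend-C18 column (2.1 × 50 mm, 1.8 μm) run at 100 μL/min with water and acetonitrile, both containing 0.1% formic acid, separated mixtures of ~100 pure standards. The HPLC was coupled to a quadrupole time-of-flight mass spectrometer operated in positive and negative ionization mode, with dead and dwell volumes of 40 μL and 900 μL. Each retention time was taken from a computationally picked adduct peak that was then manually inspected.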

| Structure (SMILES) | RP-LC retention time |
| --- | --- |
| COCCN1CCC(N2CCN(C(=O)c3ccsc3)CC2)C1=O (stereo not given) | 515 s |
| CCCCOc1ccc(C(=O)N2CCCC2c2nc(-c3ccc(OC)c(OC)c3)no2)cc1 (stereo not given) | 1110 s |
| Cc1ccc(S(=O)(=O)N2CCC(n3cnc4c(C)cccc4c3=O)CC2)c(C)c1 | 1060 s |
| COc1cc(C)c(C)cc1S(=O)(=O)NCC1CCN(C(=O)Oc2ccccc2)CC1 | 964 s |
| Cc1cccc2c(C(N)=O)cc(-c3ccccc3)nc12 | 904 s |
| COc1ccccc1NS(=O)(=O)c1c[nH]c2ncccc12 | 706 s |
| O=C(CCC1CCN(c2cc(NC3CC3)ncn2)CC1)NCc1ccc(Cl)cc1 | 680 s |
| COCc1nncn1C1CCN(S(=O)(=O)c2cccc(F)c2)CC1 | 693 s |
| COc1ccc(C(C)NC(=O)C2CCCN(c3nccnc3Sc3ccc(C)cc3)C2)cc1 (stereo not given) | 1090 s |
| CN(Cc1ccccc1)C(=O)c1ccc(NC(=O)[C@H]2[C@@H]3C[C@@H]4[C@H]2C(=O)O[C@@H]4C3)cc1 | 775 s |
| CCCCCC[C@H]1C(=O)O[C@H](C)[C@H](NC(=O)c2cccc(NC=O)c2O)C(=O)O[C@@H](C)[C@@H]1OC(=O)CC(C)C | 1100 s |
| O=C(CC1CCCN(c2cnn(CC3CC3)c(=O)c2)C1)N1CCC2(CC1)OCCO2 (stereo not given) | 706 s |
| CCCn1ccc2sc(C)c(C(=O)NCc3ccc(OC)c(OC)c3)c2c1=O | 780 s |
| Cc1nc(NCCCn2ccnc2)nc(Nc2ccccc2)c1[N+](=O)[O-] | 589 s |
| COc1cccc(CN(C)C2CCc3nn(CC4CC4)c(=O)n3CC2)n1 (stereo not given) | 587 s |
| Cc1noc(C)c1S(=O)(=O)N1CCC(n2nc(-c3ccccc3)nc2C)C1 (stereo not given) | 806 s |
| O=C(CSc1nnc(CCc2nc3ccccc3[nH]2)o1)Nc1nccs1 | 556 s |
| COc1ccc(NC(=O)N2CCC(n3cnc4cccnc43)CC2)cc1 | 617 s |
| O=C(CSc1nnc(NC(=O)C2CCCCC2)s1)Nc1ccc2c(c1)OCO2 | 802 s |
| Cc1ccccc1NC(=O)N1CCCC1c1nc(-c2ccc(F)cc2F)no1 (stereo not given) | 932 s |
| CCc1ccc(CNC(=O)C2CC(=O)N(c3ccc4c(c3)CCN4C(C)=O)C2)cc1 (stereo not given) | 932 s |
| Cc1nc(-c2ccccc2)sc1C(=O)N1CCN(c2ccc(-n3ccnc3C)nn2)CC1 | 572 s |
| O=C(c1ccncc1)N1CCCn2nc(-c3cccs3)cc2C1 | 642 s |

| Structure (SMILES) | RP-LC retention time |
| --- | --- |
| CCc1ccc(N(CC)C(=O)Cn2cnc3nc4c(cc3c2=O)CCCC4)cc1 | 885 s |
| Cc1nn(CC(=O)N2CCC(Cc3ccccc3)CC2)c(=O)c2noc(C)c12 | 832 s |
| COCC(=O)N1CCCCCCNC(=O)[C@@H]2CCCC[C@@H]21 | 659 s |
| COc1cc(C(=O)N2CCN(c3cc(C)n4c(C)nnc4n3)CC2)cc(OC)c1OC | 587 s |
| Cc1cc(C)cc(NC(=O)CN2C(=O)CSc3ccc(C(=O)N(C)C)cc32)c1 | 906 s |
| CCCn1cc(C(=O)Nc2ccc3c(c2)OCO3)c(=O)c2ccc(C)nc21 | 1100 s |
| Cc1ccc(-c2nnc(-c3ccccc3Cl)o2)cc1S(=O)(=O)N1CCOCC1 | 969 s |
| O=C(c1ccco1)N1CCC(F)(C(=O)N2CCCC2)CC1 | 653 s |
| CCCN1C(=O)COc2ccc(-c3csc(NC(=O)C4CCCO4)n3)cc21 (stereo not given) | 896 s |
| CCNC(=O)C1Cn2cccc2C(=O)N1C (stereo not given) | 569 s |
| Cc1ccc2nc(C(=O)NCc3ccc(F)cc3F)cn2c1 | 668 s |
| O=C(Cn1nc(S(=O)(=O)c2ccc(Cl)cc2)ccc1=O)N1CCN(c2ccccc2F)CC1 | 937 s |
| COc1ccc(NC(=O)c2cc(C)n3nc(-c4ccco4)cc3n2)c(OC)c1 | 1100 s |
| O=C(c1ccoc1)N1CCCC(c2cc(-c3ccccc3)n[nH]2)C1 (stereo not given) | 594 s |
| CCc1ccc2[nH]c3c(c(=O)c2c1)CN(CC(=O)NCc1ccc(SC)cc1)CC3 | 889 s |
| COc1cccc(N2CCN(Cc3nc(-c4ccc(N5CCC(C)CC5)nc4)no3)CC2)c1 | 1020 s |
| CCS(=O)(=O)N1CC(=O)N(c2ccc(C)cc2C)C(C)(C(=O)NCc2ccc(F)cc2)C1 (stereo not given) | 857 s |
| Cc1ccc(CNC(=O)C2Cn3cccc3C(=O)N2CC(C)C)o1 (stereo not given) | 746 s |
| Cc1cnc(-c2ccccc2)n1CCNS(=O)(=O)c1ccc(C#N)cc1 | 634 s |
| Cc1noc(C)c1S(=O)(=O)N1CCCC(c2nnnn2-c2ccccc2)C1 (stereo not given) | 903 s |
| Cc1ccc2c(c1)N(C(=O)Cn1cnc3nc4c(cc3c1=O)CCCC4)CCO2 | 782 s |
| CCOc1ccc(NC(=O)CCc2cccc3[nH]ccc23)cc1 | 875 s |
| COCCNC(=O)C1COc2ccc(NC(=O)c3ccc(Br)cc3)cc2C1 (stereo not given) | 774 s |

| Structure (SMILES) | RP-LC retention time |
| --- | --- |
| O=C(NCc1ccc(F)c(Cl)c1)C1CCN(c2cnc3nccnc3c2)CC1 | 757 s |
| CN1Cc2ccccc2-n2ccnc2C12CCN(C(=O)NC1CCCCC1)CC2 | 611 s |
| Cc1nc(C)c(C(=O)N2CC(Oc3ccc(-c4nc(-c5ccccc5)no4)cc3)C2)s1 | 1130 s |
| Cc1ccc(NC(=O)Cn2c(-c3cnccn3)nc(C)c(C)c2=O)cc1F | 793 s |
| Fc1ccccc1-c1nc(-c2cccc(-c3ccn[nH]3)c2)no1 | 977 s |
| CN(C(=O)Cn1c(CCO)nc2ccccc21)c1ccccc1 | 554 s |
| CCC(c1cccs1)N1C(=O)[C@H]2CN(S(=O)(=O)c3cccc(Cl)c3)C[C@H]2C1=O (stereo not given in full) | 1060 s |
| COCCn1cc(CC(=O)NC2CCCCC2)c2cccnc21 | 700 s |
| CCCN(C(=O)CC)c1nc(-c2ccccc2)cs1 | 1210 s |
| O=C(CCn1nnc2cc(-c3noc(COc4ccccc4)n3)ccc21)N1CCCC1 | 862 s |
| Cc1ccc(C)c(CNC(=O)CCc2conc2-c2ccc(F)cc2)c1 | 1010 s |
| O=C(Nc1cccnc1N1CCOCC1)C1CC1 | 576 s |
| CCc1ccc(S(=O)(=O)NCCc2csc3nc(-c4cccc(F)c4)nn23)s1 | 994 s |
| CN(C)c1ccc(NC(=O)c2ccco2)cc1 | 532 s |
| CS(=O)(=O)Nc1cccc(NC(=O)CN2CCN(c3ccc4c(c3)OCCO4)C2=O)c1 | 657 s |
| COc1ccc(C(=O)N2CCCC2COc2ccc(C(=O)N3CCCC3)cc2)cc1 (stereo not given) | 800 s |
| O=C(CCc1nc(C2=CCN(Cc3ccc(Cl)cc3)CC2)no1)NCc1cccs1 | 688 s |
| O=C(CSc1nnc(-c2cccnc2)o1)c1ccc2c(c1)OCCO2 | 715 s |
| O=C(c1ccc(N2CCCC2)c(S(=O)(=O)N2CCCC2)c1)N1CCN(c2ccccn2)CC1 | 664 s |
| Cc1cc(C(=O)NC2CCCCC2)nc2cc(-c3cccs3)nn12 | 1220 s |
| Cc1[nH]c(C(=O)N2CCC(CC(=O)NCc3ccccc3Cl)CC2)c(C)c1C(=O)OC(C)C | 876 s |
| CCCCC(=O)Nc1nc(-c2ccc3c(c2)N(C)C(=O)CO3)c(C)s1 | 925 s |
| CCOc1ccc(OCC)c(NS(=O)(=O)c2cc(-c3c(CC)noc3NC(C)=O)ccc2C)c1 | 932 s |

| Structure (SMILES) | RP-LC retention time |
| --- | --- |
| COc1ccc(C(=O)NCCC2=CCCCC2)cc1 | 846 s |
| Cc1cc(Cl)ccc1NC(=O)N1CCN(C2=CC3=NCC(C)N3C=N2)CC1 (stereo not given) | 814 s |
| COc1ccccc1CNC(=O)C1CCCN(c2cnc3nc(C)c(C)nc3c2)C1 (stereo not given) | 727 s |
| CCNC(=O)C1CCN(C(=O)Nc2ccc(NC(=O)NCCC(C)C)cc2)CC1 | 662 s |
| CCC(NC(=O)c1cn2cc(C)ccc2n1)c1ccc(OC)cc1 (stereo not given) | 697 s |
| CC(=O)Nc1ccc2c(c1)N(C(=O)c1cccs1)CCC2 | 695 s |
| CCOC(=O)c1cc(S(=O)(=O)N2CCCC2C(=O)Nc2cccc(C(F)(F)F)c2)cn1C (stereo not given) | 1050 s |
| COc1ccc(CC(C)(O)CNC(=O)Nc2ccccc2OC)cc1 (stereo not given) | 750 s |
| COc1ccc(NC(=O)C2CCc3nc(N4CCC(C)CC4)ncc3C2)c(C)c1 (stereo not given) | 747 s |
| CN(C(=O)C1CCCN(c2ncnc3c2nc2n3CCCCC2)C1)c1ccccc1 (stereo not given) | 766 s |
| CN(CCc1ccc(Cl)c(Cl)c1)CC(O)COc1ccc(NS(C)(=O)=O)cc1 (stereo not given) | 715 s |
| CC(C)Cn1cc(CCNC(=O)Nc2ccc(F)c(Cl)c2)c2cccnc21 | 912 s |
| COc1ccc(-c2cc3ccccc3[nH]2)cc1 | 1100 s |
| Cc1ccc(C)c(S(=O)(=O)Nc2ccc3scnc3c2)c1 | 776 s |
| CC(C)(C)C1CCc2[nH]nc(C(N)=O)c2C1 (stereo not given) | 745 s |
| CCc1ccc(CNC(=O)C2CCCN(c3ncnc4nn(-c5ccc(C)cc5)cc34)C2)cc1 (stereo not given) | 787 s |
| Cn1cc2c(N3CCCC3)nc(C(=O)NCCN3CCc4ccccc4C3)nc2n1 | 523 s |
| O=C(c1ccc2c(c1)N(Cc1ccc(F)cc1)C(=O)CO2)N1CCN(c2ccccn2)CC1 | 639 s |
| Cc1c(-c2ccnc(N3CCN(Cc4ccccc4)CC3)n2)cnc2ncnn12 | 588 s |
| CCOc1ccccc1-c1noc(CN2N=NC3C(=O)N(c4ccc(OC)c(OC)c4)C(=O)C32)n1 (stereo not given) | 868 s |
| O=C(CC(c1cccs1)n1cccc1)N1CCN(c2ccccn2)CC1 (stereo not given) | 659 s |
